Values after ≈ are worked out from the molar mass of the structure shown.
Key:
Format in all cases: functional
Bacillus cereus = test: Antibacterial activity against Bacillus cereus DSM318 after 24 hrs at 37 degC by serial dilution method; details: DSM318, 24 h
Staphylococcus aureus = test: Antibacterial activity against Staphylococcus aureus ATCC 13709 after 24 hrs at 37 degC by serial dilution method; details: ATCC 13709, 24 h
[1] = tested on: Agrobacterium tumefaciens; test: Antibacterial activity against Agrobacterium tumefaciens ATCC 23308 after 24 hrs at 37 degC by serial dilution method; details: ATCC 23308, 24 h
Candida albicans = test: Antifungal activity against Candida albicans ATCC 10231 after 24 hrs at 37 degC by serial dilution method; details: ATCC 10231, 24 h
Candida tropicalis = test: Antifungal activity against Candida tropicalis DSM1346 after 24 hrs at 37 degC by serial dilution method
Rhodotorula glutinis = test: Antifungal activity against Rhodotorula glutinis DSM70398 after 24 hrs at 27 degC by serial dilution method
Aspergillus niger = test: Inhibition of spore germination of Aspergillus niger DSM737 after 24 hrs at 27 degC by serial dilution method; details: DSM737, 24 h
Aspergillus ochraceus = test: Inhibition of spore germination of Aspergillus ochraceus DSM63304 after 24 hrs at 27 degC by serial dilution method

- MIC (Bacillus cereus): > 100 mg/L
- MIC (Staphylococcus aureus): > 100 mg/L
- MIC [1]: > 100 mg/L
- MIC (Candida albicans): 50 mg/L (≈ 312 µM)
- MIC (Candida tropicalis): 50 mg/L (≈ 312 µM)
- MIC (Rhodotorula glutinis): 10 mg/L (≈ 62.4 µM)
- MIC (Aspergillus niger): 1 mg/L (≈ 6.24 µM)
- MIC (Aspergillus ochraceus): 1 mg/L (≈ 6.24 µM)
Structure (SMILES): CC#CC#CC#C[C@@H]1O[C@@H]1CO (relative stereo)
